Measurements from patent publication US12583888B2, “Bi-specific extracellular matrix binding peptides and methods of use thereof” (University of Tartu, priority 2019, dated 2026).
Values joined by “and” are separate entries in the source; they are usually repeats but may differ in a detail not shown here. Identical values can stand only once. No end group written: not given here.

Assays:
TNC-C = molecular target: T1, TNC-C (Homo sapiens, UniProt P24821); experiment: Individual peptide-phage binding to TNC-C; details: individual peptide phages
T1 construct: made in house; host or cells: E. coli BL21 Rosetta 2 (DE3) pLysS
T1 sequence (P24821 with tags, fused parts or gaps): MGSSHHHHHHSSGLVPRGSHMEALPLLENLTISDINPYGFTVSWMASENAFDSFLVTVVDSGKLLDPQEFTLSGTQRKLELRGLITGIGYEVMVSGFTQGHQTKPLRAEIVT

U87-MG glioblastoma = details: i.v. equimolar mix, 2 h circulation
Excerpt: (§1) In vivo play-off was used to evaluate systemic homing of peptide phage to xenograft tumor models. The in vitro selected candidate TNC-C binding peptides, phages displaying published tumor homing peptides, and control peptides were amplified and purified by precipitation with PEG-8000 (Sigma-Aldrich, St. Louis, MO, USA), followed by CsCl2 gradient ultracentrifugation and dialysis. The amplified phage peptides were pooled in equimolar quantities, and injected intravenously (final 1×10^10 pfu in 200 μl PBS) in tumor-bearing mice for two hour circulation, after which mice were anesthetized with 2.5% avertin and intracardially perfused with DMEM intracardially. The tumors and organs were collected in lysogeny broth (LB)+1% NP40, and the tissues were homogenized using a hand-held homogenizer for phage peptide rescue. Phages in the tissue lysates were amplified in E. coli, purified by precipitation with PEG-8000 and DNA was extracted using a DNA extraction kit (High Pure PCR Template Preparation Kit; Roche, Basel, Switzerland). Next-generation sequencing of phage genomic DNA evaluated the representation of each phage in input mixture, in tumor and control organs with Ion Torrent system (Thermo Fisher Scientific, Waltham, MA, USA). The next generation deep sequencing of phage library was done using Ion Torrent according to the manufacturer's protocol with slight modification. The FASTQ data from Ion Torrent was processed by a custom python script that identified the barcodes, constant flanking residues, and extracted the reads of the correct length.

P3 stem cell-like tumor = details: i.v. equimolar mix, 2 h circulation
Excerpt: as §1

[1] = test system: PC3 prostate carcinoma xenografts; details: i.v. equimolar mix, 2 h circulation
Excerpt: as §1

P13 tumor = details: i.v. equimolar mix, 2 h circulation
Excerpt: as §1

normal brain = details: i.v. equimolar mix, 2 h circulation
Excerpt: as §1

WT-GBM tumor = details: i.v. equimolar mix, 2 h circulation
Excerpt: as §1

s.c. U87MG tumors = experiment: Experimental tumor therapy; assay type: in vivo, mice
Method: U87MG cells (4×10^6) in 100 μl PBS were implanted subcutaneously into the right flank of 11-15 week old male nude mice. The weight of animals and tumor volume [length×(width×width)/2] was recorded on every other day until tumor volume reached −100 mm^3. Animals were randomized into 4 groups (PBS, FAM-D[KLAKLAK]2-NWs, FAM-PL1-NWs, and FAM-PL1-D[KLAKLAK]2-NWs; 8 mice/group). 100 μl of NWs (at 5 mg/kg body weight of iron) or PBS was intravenously injected into the tail vein every other day for ten injections. Tumor size, body weight, survival, and behavior were recorded during treatment and post-therapy. When the tumor volume reached 2000 mm^3 (or >10% body weight), the mice were sacrificed, and organs and tumors were excised, macroscopically observed and snap frozen. Tumor volume, Kaplan-Meier survival and body weight curves were calculated using the GraphPad Prism 6 software with p-values <0.05 considered significant. For experimental therapy on intracranially-implanted NCH421k GBM, 32 tumor mice were randomized into 4 groups 3 days after the tumor implantation. […] Tumor size, body weight, survival, and behavior were recorded during and post-treatment. Kaplan-Meier survival and body weight curves were calculated using GraphPad Prism 6 and P values <0.05 were considered significant.

[2] = test system: s.c. U87MG glioblastoma xenografts; experiment: Systemic NW tumor homing, FAM signal by confocal microscopy; details: U87MG tumors, 7.5 mg/kg i.v., 5 h
Method: (§2) FAM-labeled PL2 peptide coupled NW or control FAM-NW (7.5 mg/kg) in PBS were injected into the tail vein of the subcutaneous U87, PC3, and orthotropic WT-GBM tumor mice. Five h after circulation, the tumor and organs were collected by cardiac perfusion of mice with 20 ml PBS/DMEM under deep anesthesia. Tissues were imaged under an Illuminatool Bright Light System LT-9900 (Lightools Research, Encinitas, CA, USA) before Snap-frozen. The frozen tissues were cryosectioned 8-10 μm and mounted on a superfrost+ slides. The sections were equilibrated at RT and fixed with 4% paraformaldehyde/methanol. The immunostaining performed with following primary antibodies; rabbit anti-fluorescein IgG fragment (cat. no. A889, Thermo Fisher Scientific, MA, USA), rat anti-mouse CD31 (BD Biosciences, CA, USA), and in-house prepared CF647 or CF546-labeled single chain antibodies ScFV G11, for secondary antibodies; Alexa 488 goat anti-rabbit IgG, Alexa 647 goat anti-rat IgG, and Alexa 546 goat anti-mouse IgG, were from Invitrogen, CA, USA. Nuclei were counterstained with 4′,6-diamidino-2-phenylindole (DAPI, Molecular Probes) at one 1 μg/ml. The coverslips were mounted onto glass slides with Fluoromount-G (Electron Microscopy Sciences, PA, USA) imaged using confocal microscopy (Olympus FV1200MPE, Hamburg, Germany), and analyzed using the FV10-ASW4.2 viewer/Imaris software/Fiji ImageJ.

[3] = test system: orthotopic NCH421K glioblastoma xenografts; experiment: as above; assay type: in vivo, mice; details: NCH421K tumors, 7.5 mg/kg i.v., 5 h
Method: For NW biodistribution studies, NWs (7.5 mg/kg) in PBS were injected into the tail vein of the tumor-bearing mice, followed by cardiac perfusion with 20 ml PBS/DMEM before collection tumor and control organs for imaging. In control experiments, NW injection was preceded by systemic pre-injection of blocking FN-EDB and/or TNC-C antibodies (30 μg/mouse) 15 min prior to injection of the NWs.
Snap-frozen 10 μm tumor cryosections were mounted on Superfrost™^+ slides. The sections were equilibrated at RT and fixed with 4% paraformaldehyde/methanol and permeabilized with PBST (PBS+0.05% Tween 20), blocked with PBST, 5% BSA, 5% goat serum (GE Healthcare, Little Chalfont, UK) at RT for 30 min, followed by primary antibody incubation at RT for 1 h. […] The coverslips were mounted on glass slides with Fluoromount-G (Electron Microscopy Sciences, PA, USA), imaged using confocal microscopy (Olympus FV1200MPE, Tokyo, Japan) and analyzed using the FV10-ASW4.2 viewer, Imaris software and ImageJ freeware.

clinical GBM samples = experiment: NW overlay assay on clinical GBM cryosections; parameters: species or system human; details: confocal imaging
Method: Fresh surgical GBMs ([…]) were snap-frozen in liquid nitrogen, cryosectioned at 8 μm, fixed with methanol, and permeabilized with TBS followed by blocking buffer containing 5% BSA, 5% goat serum and 5% FBS in TBS. For overlay, the sections were incubated with […] of PL1-NW or NW at 4° C. overnight. The sections were washed and blocked with blocking buffer, followed by immunostaining using rabbit anti-fluorescein primary antibodies and detection with the Alexa-488 anti-rabbit secondary antibody. FN-EDB and TNC-C were detected by fluorescently labeled single-chain antibodies ScFV L19 FN-EDB-CF647 and ScFV G11 TNC-C-CF555.

[4] = test system: Ad-VEGF-A164-induced angiogenic vessels; details: adenovirus-injected ear, 7.5 mg/kg i.v., 24 h
Method: Angiogenesis was induced by injecting 2.5×10^8 PFU of an adenoviral vector driving expression of mouse VEGF^164 (Ad-VEGF^164) intradermally into the left ear of 7-8 week-old female nude mice (Nagy et al., Methods Enzymol. 444:43-64 (2008)). The right ear served as a control. PL1-NW or NW (at 7.5 mg/kg) were i.v. injected 4 days after induction of angiogenesis and 24 h before intravital imaging. Texas Red/Evans Blue was i.v. injected at 30 mg/kg to allow visualization of blood vessels. The ear was fixed on the coverslip for imaging using a veterinary-grade glue tape, and a mold was prepared around the ear from agarose for imaging. The body temperature was maintained throughout the experiment with a heat mat. Images and videos were acquired at an excitation wavelength of 920 nm, optical sections were taken under identical conditions, and experiments were repeated in triplicates.

[5] = test system: orthotopic WT-GBM glioblastoma; experiment: Systemic NW tumor homing, FAM signal by confocal microscopy; assay type: in vivo, mice; details: WT tumors, 7.5 mg/kg i.v., 5 h
Method: as §2

[6] = Zeta potential and size of iron oxide nanoworms by DLS; assay type: physicochemical; details: n = 3
Method: The concentration of the NWs was determined by constructing a calibration curve with iron oxide and measuring the absorbance of NWs at 400 nm with a NanoDrop 2000c spectrophotometer (Thermo Scientific). The concentration measurements were confirmed by ICP-MS. Transmission electron microscopy (TEM, Tecnai 10, Philips, Netherlands) was used to image the nanoparticles. Dynamic Light Scattering (DLS; Zetasizer Nano ZS, Malvern Instruments, UK) was used to assess the zeta potential, polydispersity and size of NWs.

orthotopic NCH421K GBM = experiment: Magnetic resonance imaging of NW-injected mice; assay type: in vivo
Method: For MRI, nude mice bearing orthotopic NCH421k GBM were i.v. injected with iron oxide nanoworms at 5 mg/kg. Five hours after NW injection, the mice were anesthetized with isoflurane and subjected to MRI using a 9.4 Tesla BioSpec 94/21 (Bruker BioSpin MRI GmbH, Ettlingen, Germany) equipped with ParaVision Acquisition 6.0.1 software (Bruker, Ettlingen, Germany). Following intravital MRI, the animals were perfused with PBS to remove blood and background circulating NWs and subjected to postmortem MRI. After imaging, tumors and control tissues were harvested and sectioned for immunofluorescence staining. Mice received isoflurane in oxygen mix (1.5%, flow rate of 200 ml/min) for anesthesia; the body temperature and breathing rate were monitored throughout the experiments. T2* map MGE (Multiple Gradient Echo) sequences were acquired in sagittal and coronal orientations. The following parameters were used during the data acquisition: slice thickness −0.375 mm (3 slices averaged offline for improved signal/noise ratio); inter-slice gap −0.375 mm; repetition time −800; Echo time ˜3.5-38.5 ms; flip angle ˜50°; axial slices ˜128, pixel bandwidth ˜292.9; imaging frequency ˜400.3; matrix ˜256×256, and magnetic field strength ˜9.4. To calculate T2 relaxation times, regions of interest (ROIs) were drawn manually on the images by using image sequence analysis (ISA) tool package (Paravision 5, Bruker) using T2vtr fit function y=A+C*exp (−t/T2) (A=Absolute bias, C=signal intensity, T2=spin-spin relaxation time) for T2 evaluation. To calculate mean signal intensity in the tumor to a reference region, ROIs were drawn manually on the images at given echo time (TE). Experiments were repeated in triplicate.

[7] = test system: PC3 prostate carcinoma xenografts; experiment: Systemic NW tumor homing, FAM signal by confocal microscopy; assay type: in vivo, mice; details: PC3 tumors, 7.5 mg/kg i.v., 5 h
Method: as §2

[8] = test system: intracranially-implanted NCH421k GBM; experiment: Experimental tumor therapy; assay type: in vivo, mice; parameters: percent of the surviving mice: concentration or dose not given beside the values
Method: U87MG cells (4×10^6) in 100 μl PBS were implanted subcutaneously into the right flank of 11-15 week old male nude mice. The weight of animals and tumor volume [length×(width×width)/2] was recorded on every other day until tumor volume reached −100 mm^3. Animals were randomized into 4 groups (PBS, FAM-D[KLAKLAK]2-NWs, FAM-PL1-NWs, and FAM-PL1-D[KLAKLAK]2-NWs; 8 mice/group). 100 μl of NWs (at 5 mg/kg body weight of iron) or PBS was intravenously injected into the tail vein every other day for ten injections. Tumor size, body weight, survival, and behavior were recorded during treatment and post-therapy. When the tumor volume reached 2000 mm^3 (or >10% body weight), the mice were sacrificed, and organs and tumors were excised, macroscopically observed and snap frozen. Tumor volume, Kaplan-Meier survival and body weight curves were calculated using the GraphPad Prism 6 software with p-values <0.05 considered significant. For experimental therapy on intracranially-implanted NCH421k GBM, 32 tumor mice were randomized into 4 groups 3 days after the tumor implantation. 100 μl of the PBS or PBS containing FAM-D[KLAKLAK]2-NWs, FAM-PL1-NWs and FAM-PL1-D[KLAKLAK]2-NWs (5 mg/kg body weight of iron; SEQ ID NO:6) were injected i.v. every other day for 10 total injections. Tumor size, body weight, survival, and behavior were recorded during and post-treatment. Kaplan-Meier survival and body weight curves were calculated using GraphPad Prism 6 and P values <0.05 were considered significant.

Substance: AVRGRLRVAKLAAALE
- TNC-C binding (fold G7 control phage) (TNC-C): 5333 fold and 7111 fold
- Representation of phage in tumors (fold G7 control phage), U87-MG (U87-MG glioblastoma): 0.8 fold
- Representation of phage in tumors (fold G7 control phage), P3 SCL (P3 stem cell-like tumor): 0.6 fold
- Representation of phage in tumors (fold G7 control phage), PC3 [1]: 1.0 fold
- Representation of phage in tumors (fold G7 control phage), P13 (P13 tumor): 0.6 fold
- Representation of phage in control brain tissue (fold G7 control phage), Norm. brain (normal brain): 0.1 fold
- Representation of phage in tumors (fold G7 control phage), WT-GBM (WT-GBM tumor): 1.3 fold

Substance: PL1-NW: iron oxide nanoworms coated with FAM-labeled PL1 peptide (CPPRRGLIKLKTS; not fully specified (residue 1); also: FAM label)
- Median survival (s.c. U87MG tumors; U87MG, Kaplan-Meier): 39 days
- percent of the surviving mice (s.c. U87MG tumors; U87MG, day 0): 100%
- percent of the surviving mice (s.c. U87MG tumors; U87MG, day 29): 88%
- percent of the surviving mice (s.c. U87MG tumors; U87MG, day 31): 75%
- percent of the surviving mice (s.c. U87MG tumors; U87MG, day 33): 75%
- percent of the surviving mice (s.c. U87MG tumors; U87MG, day 35): 63%
- percent of the surviving mice (s.c. U87MG tumors; U87MG, day 37): 63%
- percent of the surviving mice (s.c. U87MG tumors; U87MG, day 39): 38%
- percent of the surviving mice (s.c. U87MG tumors; U87MG, day 41): 25%
- percent of the surviving mice (s.c. U87MG tumors; U87MG, day 43): 25%
- percent of the surviving mice (s.c. U87MG tumors; U87MG, day 45): 13%
- percent of the surviving mice (s.c. U87MG tumors; U87MG, day 49): 13%
- percent of the surviving mice (s.c. U87MG tumors; U87MG, day 57): 0%
- tumor growth (s.c. U87MG tumors; s.c. U87MG, i.v. every other day, 10 injections, 5 mg/kg iron): only a slight reduction in tumor growth
- increase in NW accumulation compared to non-targeted NWs [2]: 5 fold
- increase in NW accumulation compared to non-targeted NWs [3]: 8.8 fold
- binding to clinical GBM cryosections (clinical GBM samples): showed binding to all human GBM samples tested
- increase in accumulation in angiogenic vessels relative to nontargeted NWs [4]: ~3 fold
- increase in NW accumulation compared to non-targeted NWs [5]: 3.3 fold
- Zeta Potential [6]: −10.3 ± 0.7 mV
- decrease of T2* relaxation time within the tumor (orthotopic NCH421K GBM; 5 mg/kg iron i.v.): 27-36%
- T2* relaxation time within the tumor (orthotopic NCH421K GBM; after NW injection, first value (post-scan, 5 h)): 17 ± 1 ms
- T2* relaxation time within the tumor (orthotopic NCH421K GBM; after NW injection, second value (perfused)): 14 ± 4 ms
- T2* relaxation time within the tumor (orthotopic NCH421K GBM; before NW injection (pre-scan)): about 23±2 ms
- increase in NW accumulation compared to non-targeted NWs [7]: 4.7 fold
- Median survival ([8]; Kaplan-Meier): 42 days
- percent of the surviving mice ([8]; day 0): 100%
- percent of the surviving mice ([8]; day 32): 100%
- percent of the surviving mice ([8]; day 37): 75%
- percent of the surviving mice ([8]; day 38): 62.5%
- percent of the surviving mice ([8]; day 39): 62.5%
- percent of the surviving mice ([8]; day 40): 62.5%
- percent of the surviving mice ([8]; day 41): 62.5%
- percent of the surviving mice ([8]; day 42): 37.5%
- percent of the surviving mice ([8]; day 43): 25%
- percent of the surviving mice ([8]; day 44): 0%
